Like-named read-outs stand apart in the source and are kept apart here.

Holding throughout (assay type): biochemical
The target in one experiment is T1, Recombinant Human MMP-13 (Homo sapiens, UniProt P45452).
T1 construct: purchased R&D systems 511-MM
The experiment can be described thus: MMP-13 inhibitory activity (MMP-13 specific fluorescent substrate with quencher). The procedure, abridged:
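Recombinant human MMP-13 with test compound, reaction started with quenched fluorogenic peptide 7-MCA-Pro-CHA-Gly-NVal-His-Ala-DPA in Tris-HCl buffer, 1 h at 25 °C, stopped with acetic acid. Fluorescence at Ex 325/Em 405 nm; % inhibition versus enzyme-free and inhibitor-free wells, reported as IC50 (μM).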

The next experiment concerns the target T2, MMP-1 (Homo sapiens, UniProt P03956).
T2 sequence (P03956 100-469): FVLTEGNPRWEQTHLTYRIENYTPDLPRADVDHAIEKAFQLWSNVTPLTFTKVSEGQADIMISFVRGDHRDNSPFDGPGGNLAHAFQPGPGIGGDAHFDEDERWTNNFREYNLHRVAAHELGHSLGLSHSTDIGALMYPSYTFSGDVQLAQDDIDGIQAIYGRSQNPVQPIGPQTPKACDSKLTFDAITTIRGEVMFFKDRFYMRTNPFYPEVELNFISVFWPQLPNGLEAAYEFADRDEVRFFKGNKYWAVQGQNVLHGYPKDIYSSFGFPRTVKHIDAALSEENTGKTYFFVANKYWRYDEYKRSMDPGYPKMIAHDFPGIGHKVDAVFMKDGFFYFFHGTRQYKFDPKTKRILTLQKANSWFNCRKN
The experiment in a line: MMP-1 inhibitory action (Type I collagen Activity Measurement kit, FITC-labeled collagen type I).

The next experiment addresses T3, aggrecanase-1 (Homo sapiens, UniProt O75173).
T3 sequence (O75173 213-837): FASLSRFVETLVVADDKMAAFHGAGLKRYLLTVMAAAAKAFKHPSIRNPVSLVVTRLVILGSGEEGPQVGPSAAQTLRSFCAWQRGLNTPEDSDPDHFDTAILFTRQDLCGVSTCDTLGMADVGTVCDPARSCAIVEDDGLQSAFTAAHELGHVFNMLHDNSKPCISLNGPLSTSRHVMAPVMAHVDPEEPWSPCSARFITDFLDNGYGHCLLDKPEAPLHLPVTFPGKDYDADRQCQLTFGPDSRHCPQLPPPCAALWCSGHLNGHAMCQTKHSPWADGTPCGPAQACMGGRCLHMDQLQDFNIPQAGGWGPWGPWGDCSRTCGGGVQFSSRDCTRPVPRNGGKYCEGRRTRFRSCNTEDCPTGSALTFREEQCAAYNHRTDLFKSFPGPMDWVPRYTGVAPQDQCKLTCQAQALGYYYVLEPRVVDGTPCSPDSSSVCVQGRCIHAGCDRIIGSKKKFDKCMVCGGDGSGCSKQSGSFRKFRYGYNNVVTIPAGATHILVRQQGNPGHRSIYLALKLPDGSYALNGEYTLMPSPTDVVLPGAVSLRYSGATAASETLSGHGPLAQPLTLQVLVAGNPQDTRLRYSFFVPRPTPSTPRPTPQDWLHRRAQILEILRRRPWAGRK
The experiment can be described thus: Aggrecanase-1 inhibitory action (Particle Assay, GAG release from aggrecan-containing polyacrylamide particles). The procedure, abridged: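 Enzyme and compound incubated with aggrecan-containing polyacrylamide particles in Tris-HCl buffer at 37° C for 15 h. Released GAG in supernatant measured with 1,9-dimethylmethylene blue at 595 nm against chondroitin sulfate standard; % inhibition from enzyme-free and inhibitor-free wells, reported as TC50 (μM).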

Setting [1] is: Experimental Example 3, read-out: IC50 MMP13.
The mark [2] stands for this setting: Experimental Example 2, read-out: IC50 MMP1.
The mark [3] stands for this setting: Experimental Example 1, read-out: IC50 AG1.
Setting [4] is: Recombinant Human MMP-13, fluorescent substrate, 25° C. for 1 h, read-out: IC50 MMP13 (Experimental Example 3).
Where [5] appears, read: MMP-1 inhibitory action, FITC-labeled collagen type I, 37° C. for 3 hr, read-out: IC50 MMP1 (Experimental Example 2).
[6] abbreviates: aggrecanase-1 inhibitory action, read-out: IC50 AG1 (Experimental Example 1).

As for `O=C(O)C1(NS(=O)(=O)c2ccc(-c3cc(C(F)(F)F)on3)s2)C2CCc3ccccc3C21` (stereo not drawn) [Example 2-351], the IC50 on Recombinant Human MMP-13 (setting [1]) was under 100 nM; on MMP-1 (setting [2]), under 1000 nM; at aggrecanase-1 (setting [3]) it was under 100 nM.
Take `O=C(O)C1(NS(=O)(=O)c2ccc(-c3cc(C(F)(F)F)on3)s2)CC1c1ccccc1` (stereo not drawn) [Example 1-121]: the IC50 is under 100 nM at Recombinant Human MMP-13 (setting [4]), at least 1000 nM at MMP-1 (setting [5]) and under 100 nM at aggrecanase-1 (setting [6]).
On to `C[C@]1(c2ccccc2)C[C@@]1(NS(=O)(=O)c1ccc(N2CCOCC2)s1)C(=O)O` [Example 2-421], for which the values for the half-maximal inhibitory concentration (IC50) on Recombinant Human MMP-13 (setting [1]), at MMP-1 (setting [2]) and on aggrecanase-1 (setting [3]) were at least 1000 nM, at least 10000 nM and at least 1000 nM, respectively.
As for `C#Cc1cnn(-c2ccc(S(=O)(=O)N[C@@]3(C(=O)O)[C@H](C)[C@@H]3c3ccccc3)s2)c1` [Example 2-4, (1S,2R,3R)-1-[5-(4-ethynyl-pyrazole-1-yl)-thiophene-2-sulfonylamino]-2-methyl-3-phenyl-cyclopropanecarboxylic acid], the IC50 on Recombinant Human MMP-13 (setting [4]) is under 100 nM; at MMP-1 (setting [5]) it was under 1000 nM; at aggrecanase-1 (setting [6]), under 100 nM.
Regarding `O=C(CN1CCOCC1)Nc1cccc(C2CC2(NS(=O)(=O)c2ccc(-c3ccc(Cl)cc3)s2)C(=O)O)c1` (stereo not drawn) [Example 2-261], the IC50 at Recombinant Human MMP-13 (setting [4]) was under 1000 nM; on MMP-1 (setting [5]), at least 10000 nM; at aggrecanase-1 (setting [6]), under 1000 nM.
Regarding `CC1(c2ccc(F)cc2)CC1(NS(=O)(=O)c1ccc(-c2cc(C(F)(F)F)on2)s1)C(=O)O` (stereo not drawn) [Example 2-339], the IC50 was under 1000 nM at Recombinant Human MMP-13 (setting [1]), at least 1000 nM at MMP-1 (setting [2]) and under 100 nM on aggrecanase-1 (setting [3]).
On to `CC1[C@H](c2ccccc2)[C@]1(NS(=O)(=O)c1ccc(-n2cc(C(F)(F)F)cn2)cc1)C(=O)O` (stereo partly drawn) [Example 2-507], for which the 50% inhibitory concentration (IC50) is under 100 nM at Recombinant Human MMP-13 (setting [1]), under 1000 nM on MMP-1 (setting [2]) and at least 1000 nM at aggrecanase-1 (setting [3]).
Regarding `CC1[C@H](c2ccccc2)[C@]1(NS(=O)(=O)N1CCN(c2ccc(Cl)cc2F)CC1)C(=O)O` (stereo partly drawn) [Example 2-460], the IC50 on Recombinant Human MMP-13 (setting [1]) was under 100 nM; at MMP-1 (setting [2]), at least 1000 nM; at aggrecanase-1 (setting [3]), under 1000 nM.
Taken in the same sequence, the figures for `C[C@]1(c2ccccc2)C[C@@]1(NS(=O)(=O)c1ccc(-c2ccc(C#N)c(F)c2)s1)C(=O)O` [Example 2-593] were under 1000 nM, at least 1000 nM and under 1000 nM.
`CNC(=O)Cc1ccc([C@@H]2C[C@]2(NS(=O)(=O)c2ccc(-c3cc(C(F)(F)F)on3)s2)C(=O)O)cc1` [Example 2-293]: the figures for the IC50 on Recombinant Human MMP-13 (setting [1]), on MMP-1 (setting [2]) and on aggrecanase-1 (setting [3]) were under 100 nM, under 1000 nM and under 100 nM, respectively.
Consider `O=C(O)C1(NS(=O)(=O)N2CCn3c(nnc3-c3ccccc3)C2)CC1c1ccccc1` (stereo not drawn) [Example 2-126], for which the IC50 at Recombinant Human MMP-13 (setting [4]), at MMP-1 (setting [5]) and on aggrecanase-1 (setting [6]) was at least 10000 nM throughout.
In the case of `O=C(O)[C@]1(NS(=O)(=O)/C=C/c2cccc(C(F)(F)F)c2)C[C@@H]1c1ccccc1` [Example 2-162], the IC50 on Recombinant Human MMP-13 (setting [4]), at MMP-1 (setting [5]) and at aggrecanase-1 (setting [6]) was at least 10000 nM each time.
As for `O=C(O)C1(NS(=O)(=O)c2ccc3c(c2)oc2cc(Cl)ccc23)CC1c1ccccc1` (stereo not drawn) [Example 1-122], the IC50 at Recombinant Human MMP-13 (setting [4]) was under 100 nM; on MMP-1 (setting [5]) it was at least 1000 nM; on aggrecanase-1 (setting [6]) it was under 100 nM.
As to `C[C@]1(c2ccccc2)C[C@@]1(NS(=O)(=O)c1ccc(-c2ccc(CO)c(F)c2)s1)C(=O)O` [Example 2-594], the IC50 on Recombinant Human MMP-13 (setting [1]) is under 1000 nM; on MMP-1 (setting [2]), at least 1000 nM; on aggrecanase-1 (setting [3]), under 1000 nM.
On to `O=C(O)C1(NS(=O)(=O)c2ccc(-c3ccc(Cl)cc3)s2)CC1c1cccc([N+](=O)[O-])c1` (stereo not drawn) [Example 1-127], for which the values for the IC50 on Recombinant Human MMP-13 (setting [4]), at MMP-1 (setting [5]) and at aggrecanase-1 (setting [6]) were under 1000 nM, at least 1000 nM and under 100 nM, respectively.
Turning to `CC1[C@H](c2ccccc2)[C@]1(NS(=O)(=O)c1ccc(-c2cn3cccnc3n2)s1)C(=O)O` (stereo partly drawn) [Example 2-571], the figures for the IC50 on Recombinant Human MMP-13 (setting [1]), at MMP-1 (setting [2]) and at aggrecanase-1 (setting [3]) were under 1000 nM, at least 1000 nM and at least 1000 nM, respectively.

As usually defined, the IC50 is the concentration that inhibits the measured activity by half.

These data come from patent US20080261994A1, “CYCLOPROPANE COMPOUNDS AND PHARMACEUTICAL USE THEREOF” (Japan Tobacco Inc., priority 2003, published 2008).
